These results are taken from patent US20250281629A1, “COMPOSITIONS AND METHODS FOR ANTI-PHOSPHOCHOLINE ACTIVE IMMUNOTHERAPY” (Duke University, priority 2022, published 2025).

Where no end group is shown, it is not given here. C11H22NO6P = phosphorylcholine group attached via 2-methacryloyloxyethyl phosphorylcholine

For test [1], the system named is CD4^+ T-cell depleted mice. The test can be described thus: Anti-PC responses in CD4+ T-cell depleted mice. The test is classed as in vivo, mouse. The following applies: for anti-PC IgM in the absence of CD4+ T cells: anti-CD4 antibody; for main anti-PC IgG subclass in CD4+ T cell-depleted mice: week 3. The protocol:
Detection of Anti-PC Antibody Responses via ELISA. Anti-PC antibody responses in serum collected from the submandibular vein in mice were measured using ELISA. Briefly, plates were coated with 20 μg/mL PC-BSA (Biosearch Technologies, PC-1011-10) in 1×PBS or just 1×PBS at 4° C. overnight. The next day, the plates were washed using 1×PBST (1×PBS with 0.05% Tween 20) and then blocked three times with Superblock blocking buffer solution (Thermo Fisher, 37515). Serum diluted from 1:10^2 to 1:10^5 in 1% BSA in 1×PBST was the added to the plate and allowed to incubate for 2 h at room temperature. Anti-PC IgG was detected using HRP-conjugated Fcγ fragment-specific goat anti-mouse IgG (Jackson Immuno Research, 15-035-071). IgG subclasses and IgM anti-PC antibodies were detected using Southern Biotech HRP-conjugated goat anti-mouse antibodies (IgG1, IgG2b, IgG2c, IgG3, & IgM: 5300-05B). Area under the curve (AUC) measurements were calculated using background-subtracted absorbance values at dilutions from 1:10^2 to 1:10^5. Antibody titers were defined using an absorbance cutoff above background of 0.2 OD, where titer 2 represents an OD value greater than 0.2 at 1:10^2 dilution and so on up to titer 5 at 1:10^5 dilution.
T Cell ELISpot. T-cell responses were measured using ELISpot. Mice were euthanized 6 days after booster immunization and splenocytes were isolated using Lympholyte-M (Cedarlane, c15031). Splenocytes were stimulated with either media (negative control), Concanavalin A (ConA) (Sigma, C5275) (positive control), or PADRE peptide (1 μM) and then plated at 250,000 cells/well on IL-4 and IFN-γ capture antibody-coated 96-well ELISpot plates (Millipore, MSIPS4510). IL-4 (BD, 551878) and IFNγ (BD, 551881) detection antibodies followed by streptavidin-alkaline phosphatase (Mabtech, 3310-0) and Sigmafast BCIP/NBT (Sigma, B5655) were used to develop cell spots. The quantification of cell spots was then outsourced to Zellnet Consulting Services which uses a Zeiss KS ELISPOT reader. ELISpot counts shown represent spot counts after the subtraction of spots in the negative control wells for each sample.
CD4 T cell Depletion. Mice were given 200 μg of either anti-mouse CD4 (InVivoMAb, clone GK1.5, BioXCell, BE0003-1) or isotype control (InVivoMAb rat IgG2b isotype control anti-KLH, clone LTF-2, BioXCell, BE0090) antibodies in 100 μL InVivoPure pH 6.5 dilution buffer (BioXCell, IP0065) via i.p. injection at days −3, −1, 3, 7, 11, 15, and 19. On days 0 and 22, cells from the spleen, draining lymph nodes (axial, brachial, and inguinal), and mesenteric lymph nodes of unimmunized mice were isolated via physical separation using a 70 μm filter in order to verify CD4^+ T-cell depletion (FIGS. 11A-11E, representative flow cytometry shown in FIG. 12). The cells were treated with mouse BD Fc Block (Clone: 2.4G2) (BD Biosciences, 553142) in flow buffer on ice for 30 min and then washed and stained with antibodies against the following markers: CD4-FITC (Clone: GK1.5) (BD Biosciences, 557307), CD45-PE (Clone: 30-F11) (BioLegend, 103106), CD8a-PE-Cy7 (Clone: 53-6.7 (BD Biosciences, 552877), and CD3e-BV605 (Clone: 145-2C11) (BD Biosciences, 563004) in flow buffer for 30 min on ice. Cells were then washed in flow buffer and stained with DAPI. Flow cytometry was conducted on a BD FACSCanto II cytometer and the results were analyzed using FlowJo software. To determine the importance of PADRE T-cell epitope inclusion in immunizations, anti-CD4 or isotype control antibody-administered mice were immunized on days 0 and 14, with anti-PC antibodies measured at days 0, 7, and 22 via ELISA and T-cell responses measured on day 22 via ELISpot.

In a further test the test system is B1a cells (CD19+CD5+). The test can be described thus: Nanofiber uptake in i.p. lavage cells, flow cytometry: B1a cells. The test is classed as in vivo, mouse. The protocol:
Nanofiber Uptake and Evaluation. The cell types present and their propensity to uptake nanofibers in the i.p. space was tested by injecting mice i.p. with 100 μL of 2 mM TAMRA-labeled fluorescent nanofibers. 4 hours later, mice were euthanized and i.p. lavage was conducted via the injection of 2 mL of cold 1×PBS into the peritoneal cavity and massaging the abdomen for 30 seconds. The solution was then carefully extracted from the i.p. space and the cells were isolated followed by rinsing with ice cold flow buffer (2% heat-inactivated FBS in 1×PBS). The cells present were treated with mouse BD Fc Block (Clone: 2.4G2) (BD Biosciences, 553142) in flow buffer on ice for 30 min and then washed and stained with antibodies against the following markers: CD5-APC (Clone: 53-7.3) (BioLegend, 100626), F4/80-PerCP/Cy5.5 (Clone: BM8) (BioLegend, 123128), CD19-APC/Cy7 (Clone: 6D5) (BioLegend, 115530), CD11c-PE/Cy7 (Clone: N418) (BioLegend, 117318), and CD86-BV605 (Clone: GL1) (BD Biosciences, 2272591) in flow buffer for 30 min on ice. TAMRA-fluorescence as an indication of nanofiber uptake was measured on the PE channel. Cells were then washed in flow buffer and stained with DAPI. Flow cytometry was conducted on a BD FACSCanto II cytometer and the results were analyzed using FlowJo software.

[2] abbreviates: i.p. day 0 and 14, with PADRE-Q11 and CpG.

Regarding “C11H22NO6P-CSGSG-QQKFQFQFEQQ-NH2 (C(C11H22NO6P)SGSGQQKFQFQFEQQ-NH2) [PC-Q11, phosphodiester PC-Q11]”, in test [1] (setting [2]), the “total anti-PC IgG production, dependence on CD4+ T cells” value is recorded as “reliant on CD4^+ T cells” and the “anti-PC IgM in the absence of CD4+ T cells” value is on record as “generated by both immunizations in the absence of CD4^+ T cells”. In test [1], the “main anti-PC IgG subclass in CD4+ T cell-depleted mice” value is “IgG3”. In addition, the “CD86 activation marker on TAMRA+ B1a cells vs non-B1a cells” value in the test on B1a cells (CD19+CD5+) (4 hours after i.p. injection) is reported as “not seen”.

Turning to “(C11H22NO6P)n-CCCCSGSG-QQKFQFQFEQQ-NH2 (CCCCSGSGQQKFQFQFEQQ-NH2; not fully specified; cysteine pairing not given here; also: phosphorylcholine groups (C11H22NO6P) n=1-4, attachment not placed) [PCM-Q11, linear multi-PC conjugate]”, in test [1] (setting [2]), the “anti-PC IgM, isotype control vs CD4-depleted” value is listed as “significantly greater for PCM-Q11 immunizations when CD4^+ T cells were present”; the “total anti-PC IgG production, dependence on CD4+ T cells” value is given as “reliant on CD4^+ T cells”; the “anti-PC IgM in the absence of CD4+ T cells” value is reported as “generated by both immunizations in the absence of CD4^+ T cells”. Moreover, in test [1], the “main anti-PC IgG subclass in CD4+ T cell-depleted mice” value was “IgG3”. Besides, in the test with B1a cells (CD19+CD5+) (4 hours after i.p. injection), the “CD86 activation marker on TAMRA+ B1a cells vs non-B1a cells” value is on record as “selective elevation on B1a cells” and the “TAMRA MFI of B1a cells” value is listed as “selective uptake”. For the same substance, the “B1a cells stained positively for nanofibers” value in the test with B1a cells (CD19+CD5+) (4 hours after i.p. injection of TAMRA-labeled nanofibers) is “about 75%”. Besides, the “B1a cells among total TAMRA+ cells” value in the test with B1a cells (CD19+CD5+) (total TAMRA+ cells categorized by cell type) was “acquired by a substantial B1a cell population”.
